The record followed here is patent US20260014278A1, “HYBRID PEPTIDE DENDRIMER SYSTEMS AND EXTRAHEPATIC DELIVERY” (NUNTIUS THERAPEUTICS LIMITED, priority 2022, published 2026).

The nature of series [1]: Zeta potential of nanoparticles (electrophoretic light scattering). Type of series: physicochemical. From the text:
Zeta potential is a measurement of the magnitude of the electrostatic or charge repulsion/attraction between particles. This can be determined by analysing particle mobility and charge (Zeta potential) using the Electrophoretic Light Scattering (ELS) technique.
Zeta potential is a measurement of the magnitude of the electrostatic or charge repulsion/attraction between particles. This can be determined by analysing particle mobility and charge (Zeta potential) using the Electrophoretic Light Scattering (ELS) technique. […] Parameters: reference material: polystyrene latex, dispersant: water, 25° C. The measurements of the zeta potential were carried out using the Zetasizer Advance Series—Pro (Malvern Panalytical Ltd, Malvern, UK) according to the manufacturer's instructions.

Series [2] can be described thus: Dynamic light scattering: hydrodynamic size and polydispersity index (PDI) of nanoparticles. Type of series: physicochemical. In short, it runs like this: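 Hydrodynamic size measured by DLS (Stokes-Einstein), PDI from cumulants fit per ISO 13321/22412. Samples diluted 16× in 25 mM HEPES, water as dispersant, 25° C; PDI measured on dendrimer:nucleic acid 8:1 nanoparticles.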

The subject of series [3] is differentiated mouse muscle cells (C2c12 cells). Briefly: eGFP expression in differentiated C2c12 cells, coat with or without muscle targeting domain. Type of series: cell-based. How it is done: In a second experiment, differentiated mouse muscle cells (C2c12 cells) were transfected with formulations comprising mRNA expressing eGFP. The muscle cells were differentiated as follows: C2c12 cells were seeded and allowed to grow to confluence in a growth medium. Once the cells were confluent, the medium on the cells was replaced with a differentiation medium for 2 days to allow the cells to develop myotube characteristics. The differentiation medium was replaced with the growth medium 30 mins before transfection. The cells were transfected for 24 hours with nanocarriers indicated in FIG. 27 and harvested to assay the eGFP reporter gene expression using a plate reader. The mRNA used expressed eGFP. The growth medium contained high glucose DMEM (Gibco), 10% FBS (Gibco), 2 mM L-glutamine (Gibco). The differentiated medium contained high glucose DMEM (Gibco), 2% horse serum (Gibco), 2 mM L-glutamine (Gibco), 1 uM insulin.
As in the first experiment, the formulations used were comprising GSCG1,2-RHL (N:P=0.6:1 to mRNA) with DOTMA/DOPE (w/w=10:1 to mRNA) and mRNA, and coated with either the same equivalent of mole of dendritic PGA with or without the muscle targeting domain. The cells were harvested 24 hours post-transfection. Control: Cells were not transfected with mRNA or transfected with mRNA alone. The dendrimer with the muscle targeting domain was muscle-G1-EEEE. […]

Series [4] relates to mouse muscle cells (C2c12 cells). Nature of the series: eGFP expression in undifferentiated C2c12 cells, coat with or without muscle targeting domain. The format is cell-based. The settings on record: GSCG1,2-RHL N:P=0.6:1, DOTMA/DOPE w/w 10:1, same mole equivalent of coat, 24 hours; FIG. 26. From the text:
Nanocarrier comprising GSCG1,2-RHL (N:P=0.6:1 to mRNA) with DOTMA/DOPE (w/w=10:1 to mRNA) and mRNA was firstly prepared as described. The nanoparticles were then coated with a dendrimer with a muscle targeting domain, the muscle-G1-EEEE (Ac-EEEE)2[…]-(Acp)-NH2), at different mRNA:coating mole ratios, between 0.5:1 to 5:1, preferably around 2.74:1. As a control, the nanoparticles were coated with a dendrimer without a muscle targeting domain, the G1-EEEE, at different mRNA:coating mole ratios, between 0.5:1 to 5:1, preferably around 2.74:1.
In a first experiment, mouse muscle cells (C2c12 cells) were transfected with formulations comprising mRNA expressing eGFP. The formulations used were comprising GSCG1,2-RHL (N:P=0.6:1 to mRNA) with DOTMA/DOPE (w/w=10:1 to mRNA) and mRNA, and coated with either the same equivalent of mole of dendritic PGA with or without the muscle targeting domain. The cells were harvested 24 hours post-transfection. Control: Cells were not transfected with mRNA. The dendrimer with the muscle targeting domain was (Ac-EEEE)2[…]-(Acp)-NH2 (named “muscle-G1-EEEE”. ASSLNIA, SEQ ID NO:1, is the muscle targeting motif). The dendrimer without the muscle targeting domain was (Ac-EEEE)2[…]-NH2 (“[…]1-EEEE”).

The next series deals with C2c12 muscle cells. Briefly: Uptake of Alexa488 labelled mRNA in C2c12 cells, flow cytometry. Type of series: cell-based, mouse. The following applies: NTX3 N:P=0.6:1, DOTMA:DOPE w/w 10:1, 4 hours; FIG. 18. On the procedure:
FIG. 18. […] Labelled mRNA delivery to cells. Mouse muscle cells (C2c12) took up mRNA labelled with an Alexa488 fluorophore following transfection. The cells were transfected with labelled mRNA alone, labelled mRNA with NTX3 (N:P=0.6:1) and DOTMA:DOPE for 4 hours, and the uptake of the mRNA was measured by flow cytometry. NTX3 is GSCG1,2-RL, 3-LR linked with a muscle cell targeting peptide with 6 histidines. DOTMA:DOPE was used at w/w=10:1 to mRNA.
C2c12 cells were maintained in DMEM medium with 10% (v/v) FCS and 1% (v/v) L-glutamine in a humidified atmosphere in 5% CO2 and 37° C. The Alexa Fluor 488 tagged mRNA, expressing an eGFP, was purchased from RiboPro. 24 hours before transfection, C2c12 cells were seeded in 96 well plates in order to reach 70% confluence. mRNA transfection complexes were formed by mixing mRNA with the dendrimers in 25 mM HEPES buffer, then with DOTMA:DOPE (1:1 w/w) in 25 mM HEPES buffer at 25° C. The transfection complexes (“NTX3”) were then overlaid to the cells in full growth medium. The cells were harvested for FACS analysis 4 hours after transfection. Cells medium and PBS used to wash each well, was collected from each treatment before the addition of […] EDTA in PBS. After 10 minutes of incubation at 37° C., the cells were gently detached from the plates and pelleted down at 400 g for 8 minutes, 4° C. […] Collected data were analysed using FlowJo 10.0 software.

The test system of series [5] is Mouse muscle cells (C2c12). Briefly: eGFP expression (RFU/mg) in C2c12 muscle cells, muscle-targeting dendrimers. The format is cell-based. The following applies: N:P=0.6:1, DOTMA:DOPE w/w 10:1, 24 hours post-transfection; FIG. 9. On the procedure: Cell lines, transfection reagents and mRNA. C2c12 cells were maintained in DMEM medium with 10% (v/v) FCS and 1% (v/v) L-glutamine in a humidified atmosphere in 5% CO2, and 37° C. The Alexa Fluor 488 tagged mRNA, expressing an eGFP, was purchased from RiboPro. The mRNA either expressing an eGFP or firefly luciferase was purchased from Trilink. DOTMA:DOPE, 1:1 (w/w) were obtained from Invitrogen or Encapsula NanoSciences LLC.
Transfection procedure. 24 hours before transfection, C2c12 cells were seeded in 96well plates in order to reach 70% confluence. mRNA transfection complexes were formed by mixing mRNA with the dendrimers in 25 mM HEPES buffer, then with DOTMA:DOPE in 25 mM HEPES buffer at 25° C. The transfection complexes were then overlaid to the cells in full growth medium. The cells were harvested 4 hours after transfection for FACS analysis or 24 hours post transfection for reporter genes assays.
Two variants (NTX2 and NTX3) of the peptide dendrimer GSCG1,2-RL, 3-LR ((LR)8(KRL)4(KRL)2KGSC-NH2) were made which include the ASSLNIA (SEQ ID NO:1) muscle targeting peptide. Transfection of muscle cells with GSCG1,2-RL, 3-LR, NTX2 ((LR)8(KRL)4(KRL)2[…](Acp)-NH2) or NTX3 ((LR)8(KRL)4(KRL)2[…](Acp)-NH2) was performed using eGFP mRNA and transfection efficiency was assayed using either flow cytometry or the transgene expression assay. […]
Transgene expression assay: The cells were washed twice with PBS and incubated with 50 ul of 1× M-PER lysis buffer (Thermo 11874111). […] 40 ul of lysate from each well was transferred to all black 96 well plates for quantification of eGFP relative fluorescence unit (RFU), absorbance at 535 nm, using Molecular devices SpectraMax iD5.
Protein content determination: The protein content of each cell lysate was determined by mixing the lysate (25 μL) with Pierce™ BCA Protein Assay Kit (200 ul, Thermo Scientific). After 30 minutes of 37° C. incubation in at dark, absorbance was measured at 562 nm with Molecular devices SpectraMax iD5 and converted to protein concentration using a BSA standard curve. […]

Where [6] appears, read: GSCG1,2-RHL N:P 0.6:1, DOTMA/DOPE nanoparticles coated at 2.06:1 (dendrimer to mRNA).
Where [7] appears, read: GSCG1,2-RHL N:P 0.6:1, DOTMA/DOPE nanoparticles coated at 2.72:1 (dendrimer to mRNA).

Regarding “(Ac-EEEE)2KGSCGAASSLNIA-(Acp)-NH2) [muscle-G1-EEEE]”, the zeta potential is reported as around 38.7 mV in series [1] (setting [6]) and around 44.0 mV in series [1] (setting [7]). Further, the PDI is recorded as 0.15 in series [2] (setting [6]) and 0.14 in series [2] (setting [7]). Moreover, the size is reported as 176 nm in series [2] (setting [6]) and 172 nm in series [2] (setting [7]). Moreover, the “eGFP expression versus coat without muscle targeting domain” value in series [3] (GSCG1,2-RHL N:P=0.6:1, DOTMA/DOPE w/w 10:1, same mole equivalent of coat, 24 hours, FIG. 27) was “dramatic increase in eGFP expression”; in series [4], “dramatic increase in eGFP expression”. For the same substance, in series [3] (coat mole ratio 2.72:1 and 2.06:1 (dendrimer to mRNA)), the “mRNA transfection versus nanoparticles coated with dendrimer without the targeting domain” value is on record as “improved mRNA transfection”.
Turning to “(LR)8(KRL)4(KRL)2KGSCHHHHHHGAASSLNIA(Acp)-NH2 [NTX3]”, the “cells successfully transfected (uptake of Alexa488 labelled mRNA)” value in the series with C2c12 muscle cells is given as “approximately 100%”. In addition, the “increase in eGFP expression compared to GSCG1,2-RL, 3-LR” value in series [5] was “three-fold”.
